Measured values from ChEMBL document CHEMBL5550211 (J Med Chem, 2024).
≈ marks a conversion by molar mass, not a printed value. Calls of active or inactive are those of the source. No cut-off for these calls is given here.

Legend:
[1] = Tmax in mouse at 30 mg/kg, po; format: ADME, organism-based; conditions: in vivo
[2] = Tmax in mouse at 10 mg/kg, po; format: ADME, organism-based; conditions: in vivo
[3] = Tmax in mouse at 5 mg/kg, po; format: ADME, organism-based; conditions: in vivo
[4] = Cmax in mouse at 30 mg/kg, po; format: ADME, organism-based; conditions: in vivo
[5] = Cmax in mouse at 10 mg/kg, po; format: ADME, organism-based; conditions: in vivo
[6] = Volume of distribution at steady state in mouse at 3 mg/kg, iv; format: ADME, organism-based; conditions: in vivo, read-out: Vdss
[7] = Cmax in mouse at 5 mg/kg, po; format: ADME, organism-based; conditions: in vivo
[8] = Half-life in mouse at 3 mg/kg, iv; format: ADME, organism-based; conditions: in vivo
[9] = molecular target: Voltage-gated inwardly rectifying potassium channel KCNH2 (Homo sapiens, UniProt Q12809); assay: Inhibition of hERG; format: toxicity
Chain of Voltage-gated inwardly rectifying potassium channel KCNH2 (Q12809 whole entry): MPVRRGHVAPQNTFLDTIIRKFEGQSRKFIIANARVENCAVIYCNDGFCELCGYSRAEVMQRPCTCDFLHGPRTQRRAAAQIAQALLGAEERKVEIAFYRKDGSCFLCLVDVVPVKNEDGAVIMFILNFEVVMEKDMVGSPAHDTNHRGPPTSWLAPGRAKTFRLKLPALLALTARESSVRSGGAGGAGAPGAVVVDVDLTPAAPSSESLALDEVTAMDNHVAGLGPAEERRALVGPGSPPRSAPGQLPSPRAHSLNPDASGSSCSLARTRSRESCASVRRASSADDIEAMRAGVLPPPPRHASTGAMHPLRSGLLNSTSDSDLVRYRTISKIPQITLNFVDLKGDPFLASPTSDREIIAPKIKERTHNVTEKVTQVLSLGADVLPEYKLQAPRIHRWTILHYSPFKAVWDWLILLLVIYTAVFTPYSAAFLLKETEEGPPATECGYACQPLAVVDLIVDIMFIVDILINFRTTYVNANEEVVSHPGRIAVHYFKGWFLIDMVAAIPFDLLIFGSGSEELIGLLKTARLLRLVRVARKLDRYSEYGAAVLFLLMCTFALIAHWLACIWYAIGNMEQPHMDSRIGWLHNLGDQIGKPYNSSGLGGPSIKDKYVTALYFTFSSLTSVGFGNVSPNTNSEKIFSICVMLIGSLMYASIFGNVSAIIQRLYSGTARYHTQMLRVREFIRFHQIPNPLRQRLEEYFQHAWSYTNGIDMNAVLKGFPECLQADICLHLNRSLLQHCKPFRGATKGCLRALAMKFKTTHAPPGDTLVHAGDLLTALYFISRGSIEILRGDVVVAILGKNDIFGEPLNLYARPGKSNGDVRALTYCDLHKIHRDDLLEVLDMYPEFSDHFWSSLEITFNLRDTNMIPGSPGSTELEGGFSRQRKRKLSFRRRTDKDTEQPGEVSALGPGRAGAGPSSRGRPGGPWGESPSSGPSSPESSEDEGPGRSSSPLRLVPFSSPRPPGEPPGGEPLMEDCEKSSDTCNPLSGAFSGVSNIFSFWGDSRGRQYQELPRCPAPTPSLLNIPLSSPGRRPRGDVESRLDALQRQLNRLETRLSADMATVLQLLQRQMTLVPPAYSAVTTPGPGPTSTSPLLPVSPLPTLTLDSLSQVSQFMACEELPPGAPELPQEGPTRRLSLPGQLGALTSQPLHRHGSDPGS

[10] = Clearance in mouse at 3 mg/kg, iv; format: ADME, organism-based; conditions: in vivo
[11] = Apparent permeability across apical to basolateral side in LLC-PK1 cells; format: ADME, cell-based, Sus scrofa; conditions: pig
[12] = Dissociation constant, pKa of the compound; format: physicochemical
[13] = Chemical stability in MeOH/NaHCO3/glutathione assessed as drug metabolism assessed as SN2 substitution after 50 degreeC overnight incubation; format: physicochemical; conditions: read-out: Drug metabolism
[14] = Chemical stability in MeOH/NaHCO3/cysteine assessed as drug metabolism assessed as SN2 substitution after 50 degreeC overnight incubation; format: physicochemical; conditions: read-out: Drug metabolism
[15] = Plasma protein binding in mouse assessed as unbound fraction; format: ADME, cell-free
[16] = Plasma protein binding in rat assessed as unbound fraction; format: ADME, cell-free
[17] = Plasma protein binding in dog assessed as unbound fraction; format: ADME, cell-free, Canis lupus familiaris
[18] = Plasma protein binding in cynomolgus monkey assessed as unbound fraction; format: ADME, cell-free, Macaca fascicularis
[19] = Plasma protein binding in human assessed as unbound fraction; format: ADME, cell-free
[20] = Protein binding in mouse brain assessed as unbound fraction; format: ADME, tissue-based
[21] = Protein binding in rat brain assessed as unbound fraction; format: ADME, tissue-based
[22] = Protein binding in dog brain assessed as unbound fraction; format: ADME, tissue-based, Canis lupus familiaris
[23] = Protein binding in cynomolgus monkey brain assessed as unbound fraction; format: ADME, tissue-based, Macaca fascicularis
[24] = Solubility in stimulated gastric fluid at pH 1.2; format: ADME; conditions: simulated gastric fluid
[25] = Solubility in stimulated intestinal fluid at pH 6.5; format: ADME; conditions: simulated intestinal fluid
[26] = Solubility in buffer at pH 7.4; format: physicochemical
[27] = AUCinfinity in mouse at 5 mg/kg, po; format: ADME, organism-based; conditions: in vivo
[28] = AUCinfinity in mouse at 10 mg/kg, po; format: ADME, organism-based; conditions: in vivo
[29] = AUCinfinity in mouse at 30 mg/kg, po; format: ADME, organism-based; conditions: in vivo
[30] = Oral bioavailability in mouse at 5 mg/kg; format: ADME, organism-based; conditions: in vivo
[31] = Oral bioavailability in mouse at 10 mg/kg; format: ADME, organism-based; conditions: in vivo
[32] = Oral bioavailability in mouse at 30 mg/kg; format: ADME, organism-based; conditions: in vivo
[33] = Drug concentration in mouse plasma at 5 mg/kg, po after 2 hrs; format: ADME, organism-based
[34] = Drug concentration in mouse plasma at 5 mg/kg, po after 4 hrs; format: ADME, organism-based
[35] = Drug concentration in mouse plasma at 10 mg/kg, po after 2 hrs; format: ADME, organism-based
[36] = Drug concentration in mouse plasma at 10 mg/kg, po after 4 hrs; format: ADME, organism-based
[37] = Drug concentration in mouse plasma at 30 mg/kg, po after 2 hrs; format: ADME, organism-based
[38] = Drug concentration in mouse plasma at 30 mg/kg, po after 4 hrs; format: ADME, organism-based
[39] = Unbound drug concentration in mouse plasma at 5 mg/kg, po after 2 hrs; format: ADME, organism-based; conditions: in vivo
[40] = Unbound drug concentration in mouse plasma at 5 mg/kg, po after 4 hrs; format: ADME, organism-based; conditions: in vivo
[41] = Unbound drug concentration in mouse plasma at 10 mg/kg, po after 2 hrs; format: ADME, organism-based; conditions: in vivo
[42] = Unbound drug concentration in mouse plasma at 10 mg/kg, po after 4 hrs; format: ADME, organism-based; conditions: in vivo
[43] = Unbound drug concentration in mouse plasma at 30 mg/kg, po after 2 hrs; format: ADME, organism-based; conditions: in vivo
[44] = Unbound drug concentration in mouse plasma at 30 mg/kg, po after 4 hrs; format: ADME, organism-based; conditions: in vivo
[45] = Drug concentration in mouse brain at 5 mg/kg, po after 2 hrs; format: ADME, organism-based; conditions: read-out: Ct
[46] = Drug concentration in mouse brain at 5 mg/kg, po after 4 hrs; format: ADME, organism-based; conditions: read-out: Ct
[47] = Drug concentration in mouse brain at 10 mg/kg, po after 2 hrs; format: ADME, organism-based; conditions: read-out: Ct
[48] = Drug concentration in mouse brain at 10 mg/kg, po after 4 hrs; format: ADME, organism-based; conditions: read-out: Ct
[49] = Drug concentration in mouse brain at 30 mg/kg, po after 2 hrs; format: ADME, organism-based; conditions: read-out: Ct
[50] = Drug concentration in mouse brain at 30 mg/kg, po after 4 hrs; format: ADME, organism-based; conditions: read-out: Ct
[51] = Unbound drug concentration in mouse brain at 5 mg/kg, po after 2 hrs; format: ADME, organism-based; conditions: in vivo
[52] = Unbound drug concentration in mouse brain at 5 mg/kg, po after 4 hrs; format: ADME, organism-based; conditions: in vivo
[53] = Unbound drug concentration in mouse brain at 10 mg/kg, po after 2 hrs; format: ADME, organism-based; conditions: in vivo
[54] = Unbound drug concentration in mouse brain at 10 mg/kg, po after 4 hrs; format: ADME, organism-based; conditions: in vivo
[55] = Unbound drug concentration in mouse brain at 30 mg/kg, po after 2 hrs; format: ADME, organism-based; conditions: in vivo
[56] = Unbound drug concentration in mouse brain at 30 mg/kg, po after 4 hrs; format: ADME, organism-based; conditions: in vivo
A-375 [57] = assay: Antitumor activity against human A-375 cells harboring BRAF V600E mutant xenografted in Nu/nu NCR mouse assessed as IC90 coverage time at 5 mg/kg, po BID for 21 days; format: functional; conditions: time 21 day
A-375 [58] = assay: Antitumor activity against human A-375 cells harboring BRAF V600E mutant xenografted in Nu/nu NCR mouse assessed as IC90 coverage time at 10 mg/kg, po BID for 21 days; format: functional; conditions: time 21 day
A-375 [59] = assay: Antitumor activity against human A-375 cells harboring BRAF V600E mutant xenografted in Nu/nu NCR mouse assessed as tumor regression at 5 mg/kg, po BID for 21 days; format: functional, organism-based; conditions: time 21.0 day
A-375 [60] = assay: Antitumor activity against human A-375 cells harboring BRAF V600E mutant xenografted in Nu/nu NCR mouse assessed as tumor regression at 10 mg/kg, po BID measured after 2 weeks; format: functional, organism-based
[61] = Toxicity in Nu/nu NCR mouse subcutaneously xenografted with human A-375 cells harboring BRAF V600E mutant assessed as body weight loss at 5 to 10 mg/kg, po measured after 21 days; format: organism-based; conditions: in vivo, 504 h, dose 5-10 mg/kg, time 21 day
A-375 [62] = assay: Antitumor activity against human A-375 cells harboring BRAF V600E mutant xenografted in Nu/nu NCR mouse assessed as IC90 coverage at 5 mg/kg, po BID for 60 days; format: functional, organism-based; conditions: time 60.0 day
A-375 [63] = assay: Antitumor activity against human A-375 cells harboring BRAF V600E mutant xenografted in Nu/nu NCR mouse assessed as IC90 coverage time at 10 mg/kg, po BID for 60 days; format: functional; conditions: time 60 day
A-375 [64] = assay: Antitumor activity against human A-375 cells harboring BRAF V600E mutant xenografted in Nu/nu NCR mouse assessed as IC90 coverage time at 30 mg/kg, po BID for 60 days; format: functional; conditions: time 60 day
A-375 [65] = assay: Antitumor activity against human A-375 cells harboring BRAF V600E mutant xenografted in Nu/nu NCR mouse assessed as tumor flux inhibition at 10 to 30 mg/kg, po BID for 60 days; format: functional; design: scale not given: the % may be the effect or the level left; conditions: dose 10-30 mg/kg, time 60 day
A-375 [66] = assay: Antitumor activity against human A-375 cells harboring BRAF V600E mutant xenografted in Nu/nu NCR mouse assessed as tumor regression at 10 to 30 mg/kg, po BID for 60 days; format: functional; conditions: dose 10-30 mg/kg, time 60 day
[67] = Toxicity in Nu/nu NCR mouse intracerebrally xenografted with human A-375 cells harboring BRAF V600E mutant assessed as body weight loss at 5 to 10 mg/kg, po measured after 60 days; format: organism-based; conditions: in vivo, 1440 h, dose 5-10 mg/kg, time 60 day
[68] = Toxicity in Nu/nu NCR mouse intracerebrally xenografted with human A-375 cells harboring BRAF V600E mutant assessed as animal death at 5 to 10 mg/kg, po measured after 60 days; format: organism-based; conditions: in vivo, 1440 h, dose 5-10 mg/kg, time 60 day

SMILES: Cc1c(Nc2c(F)ccc(NS(=O)(=O)CCCF)c2Cl)ccc2ncn(C)c(=O)c12 [TINLORAFENIB]
- Tmax [1]: 1 h
- Tmax [2]: 1 h
- Tmax [3]: 1 h
- Cmax [4]: 18000 ng/mL
- Cmax [5]: 14000 ng/mL
- Vd [6]: 0.59 L/kg
- Cmax [7]: 4700 ng/mL
- half-life [8]: 1.9 h
- IC50 [9]: 49.7 µM
- clearance [10]: 3.7 mL/min/kg
- Papp A→B [11]: 36 ×10⁻⁶ cm/s
- pKa [12]: 7.41
- degraded [13]: < 1%
- degraded [14]: < 1%
- fraction unbound [15]: 0.019
- fraction unbound [16]: 0.003
- fraction unbound [17]: 0.017
- fraction unbound [18]: 0.011
- fraction unbound [19]: 0.009
- fraction unbound [20]: 0.087
- fraction unbound [21]: 0.068
- fraction unbound [22]: 0.073
- fraction unbound [23]: 0.068
- solubility [24]: 132 µg/mL (≈ 289 µM)
- solubility [25]: 7.6 µg/mL (≈ 16.6 µM)
- solubility [26]: 9.1 µg/mL (≈ 19.9 µM)
- AUC(0-inf) [27]: 28000 ng·h/mL
- AUC(0-inf) [28]: 86000 ng·h/mL
- AUC(0-inf) [29]: 176000 ng·h/mL
- bioavailability [30]: 126%
- F [31]: 192%
- bioavailability [32]: 130%
- concentration at 2 h [33]: 4200 ng/mL
- concentration at 4 h [34]: 3100 ng/mL
- concentration at 2 h [35]: 11000 ng/mL
- concentration at 4 h [36]: 9900 ng/mL
- concentration at 2 h [37]: 16000 ng/mL
- concentration at 4 h [38]: 12000 ng/mL
- Cp(f) [39]: 79 ng/mL
- Cp(f) [40]: 59 ng/mL
- Cp(f) [41]: 220 ng/mL
- Cp(f) [42]: 190 ng/mL
- Cp(f) [43]: 300 ng/mL
- Cp(f) [44]: 230 ng/mL
- concentration at 2 h [45]: 590 ng/g
- concentration at 4 h [46]: 530 ng/g
- concentration at 2 h [47]: 1600 ng/g
- concentration at 4 h [48]: 1600 ng/g
- concentration at 2 h [49]: 2400 ng/g
- concentration at 4 h [50]: 2100 ng/g
- Drug uptake(free) [51]: 0.051 µg/g
- Drug uptake(free) [52]: 0.046 µg/g
- Drug uptake(free) [53]: 0.14 µg/g
- Drug uptake(free) [54]: 0.14 µg/g
- Drug uptake(free) [55]: 0.21 µg/g
- Drug uptake(free) [56]: 0.18 µg/g
- Time (A-375 [57]): ~8 h
- Time (A-375 [58]): >16 h
- Activity (A-375 [59]): Active
- Activity (A-375 [60]): Active
- Activity [61]: < 5%
- Activity (A-375 [62]): inactive
- Time (A-375 [63]): ~16 h
- Time (A-375 [64]): >24 h
- Activity (A-375 [65]): >99%
- Activity (A-375 [66]): >90%
- Activity [67]: < 5%
- Activity [68]: Non-Toxic
